Assay: wn = mass fraction of the nth substance listed
Details: Liquid, w2 = 0.5; for mass density: Buoyancy - hydrostatic balance; for viscosity: Falling or rolling sphere viscometry

OCCOCCOCCO [triethylene glycol] + OCCO
Details	mass density [kg/m3]	viscosity [mPa·s]
298.13 K, 98 kPa	1115.1	26.24
298.15 K, 49030 kPa	1136.47	35.89
298.15 K, 98060 kPa	1152.73	48.05
298.15 K, 196130 kPa	1180.8	82.26
322 K, 196130 kPa	1169.4	27.05
322.25 K, 98060 kPa	1139.05	17.16
322.32 K, 49030 kPa	1121.83	13.34
322.36 K, 98 kPa	1101.75	10.13
355.34 K, 98 kPa	1079	3.999
355.56 K, 49030 kPa	1099.04	5.082
355.67 K, 98060 kPa	1118.11	6.302
355.76 K, 196130 kPa	1151.43	9.251
392.2 K, 98 kPa	1047.37	1.946
392.33 K, 49030 kPa	1070.25	2.418
392.39 K, 98060 kPa	1092.45	2.907
392.77 K, 196130 kPa	1129.25	4.045
434.54 K, 98060 kPa	1059.58	1.581
434.56 K, 49030 kPa	1032.55	1.33
434.59 K, 98 kPa	1002.88	1.058
434.7 K, 196130 kPa	1101.01	2.158
462.27 K, 196130 kPa	1080.63	1.616
462.4 K, 49030 kPa	1004.97	0.996
462.47 K, 98060 kPa	1035.79	1.196
462.61 K, 98 kPa	968.72	0.705

OCCOCCO [diethylene glycol] + OCCO
Details	mass density [kg/m3]	viscosity [mPa·s]
298.15 K, 98 kPa	1112.21	21.12
298.15 K, 49030 kPa	1135.06	28.23
298.15 K, 98060 kPa	1151.37	36.95
298.15 K, 196130 kPa	1178.94	60.47
322.33 K, 49030 kPa	1121.67	10.74
322.34 K, 98 kPa	1097.38	8.316
332.21 K, 196130 kPa	1162.18	20.76
332.33 K, 98060 kPa	1132.91	13.57
353.8 K, 196130 kPa	1150.15	7.683
353.83 K, 98 kPa	1075.19	3.488
353.87 K, 49030 kPa	1101.62	4.407
354.1 K, 98060 kPa	1119.74	5.334
392.87 K, 98 kPa	1043.14	1.641
393.06 K, 49030 kPa	1072.66	1.986
393.3 K, 98060 kPa	1093.17	2.36
393.6 K, 196130 kPa	1126.12	3.232
435.93 K, 49030 kPa	1035.82	1.09
435.98 K, 98060 kPa	1060.12	1.293
436.08 K, 98 kPa	1001.82	0.885
436.13 K, 196130 kPa	1097.25	1.731
462.52 K, 98060 kPa	1037.39	0.989
462.54 K, 196130 kPa	1077.67	1.313
462.73 K, 49030 kPa	1011.05	0.791
462.75 K, 98 kPa	973.24	0.671

OCCOCCOCCO [triethylene glycol] + OCCOCCO
Details	mass density [kg/m3]	viscosity [mPa·s]
298.15 K, 98 kPa	1116.28	32.4
298.15 K, 49030 kPa	1140.16	48.05
298.15 K, 98060 kPa	1157.54	68.97
298.15 K, 196130 kPa	1186.23	134.9
322.18 K, 196130 kPa	1172.01	39.19
322.32 K, 98060 kPa	1143.4	22.33
322.38 K, 49030 kPa	1125.8	16.39
322.43 K, 98 kPa	1104.5	11.71
355.15 K, 98 kPa	1083.98	4.468
355.59 K, 49030 kPa	1103.74	5.935
355.77 K, 98060 kPa	1122.4	7.663
355.95 K, 196130 kPa	1151.5	12.1
391.02 K, 98 kPa	1055.33	2.179
391.29 K, 49030 kPa	1076.96	2.772
391.39 K, 98060 kPa	1098.19	3.484
391.57 K, 196130 kPa	1129.2	5.188
432.13 K, 98 kPa	1014.59	1.172
432.65 K, 98060 kPa	1067.76	1.884
432.68 K, 196130 kPa	1102.63	2.658
432.76 K, 49030 kPa	1041.87	1.51
472.77 K, 196130 kPa	1075.84	1.747
472.82 K, 98060 kPa	1035.69	1.236
473.06 K, 49030 kPa	1003.66	1.008
473.1 K, 98 kPa	965.58	0.716

Reference: the NIST ThermoML archive (doi:10.1016/j.fluid.2011.11.022)
